Test results from US12370202B2, “Methods and compositions for inhibiting the NLRP3 inflammasome and/or LON protease” (TRITERPENOID THERAPEUTICS, INC., priority 2019, dated 2025).

Assays:
5T33MM cells [1] = test: 5T33MM syngeneic preclinical model of multiple myeloma; format: in vivo
Description: FIG. 1 is a survival curve. Survival of mice receiving either ixazomib (IXZ) or CDDO-2P-Im starting 21 days after tumor cell injection (n=5 mice per group). CDDO-2P-Im is active in the […] preclinical model of multiple myeloma.
A well-characterized syngeneic model of MM was employed. Adoptive transfer of 5T33MM cells into C57BL/KaLwRij recipient mice invariably leads to MM bone disease, impaired hematopoietic function and death.
To monitor MM tumor progression in the 5T33MM preclinical model, a 5T33MM cell line that expresses either luciferase or GFP genes was established by transducing with lentiviral particles containing firefly luciferase and GFP genes (Amsibo, Cambridge, MA); cells were selected with FACS sorting for GFP expression and by puromycin-resistance. For these experiments, 1×10^6 5T33MM-luc cells were introduced by intravenous injection into C57BL/KaLwRij mice at 2 months of age. Bioluminescence (BLI) was measured by using the IVIS Imaging System 100 (Xenogen). At 3 weeks after 5T33MM cell inoculation (where mice have established disease by BLI), mice were randomized to receive either vehicle, CDDO-2P-IM ([…] daily administered by oral gavage (po), 5 days/week), or ixazomib (IXZ; 6 mg/kg per week, administered po every Monday, Wednesday and Friday).

5T33MM cells [2] = test: MM cell proliferation (confluence), IncuCyte imaging; format: cell-based, murine; conditions: 72 hours
Method: (§1) FIG. 2 is a bar graph. CDDO-2P-Im inhibits proliferation of multiple myeloma cell line in vitro. 5T33MM, RPMI8226, and ARH77 cells were seeded in 96-well plates and incubated with CDDO-2P-Im (50 nM-150 nM). Confluence (cell proliferation) was measured using IncuCyte imaging after 72 hours. *p<0.01 compared to control.
(§2) FIG. 3 is a bar graph. […] Shown here are results for 5T33MM (50 nM TTX01/7.5 nM IXZ); RPMI8226 (100 nM TTX01/7.5 nM IXZ); and ARH77 (150 nM TTX01/10 nM IXZ). Confluence (cell proliferation) was measured using IncuCyte imaging after 72 hours.
(§3) To examine tumor-intrinsic effects of CDDO-2P-IM in the 5T33MM cell line and in human MM cells, conducted a series of in vitro studies was conducted. For these experiments, 96-well plates were first coated in poly-L-ornithine before cells were seeded (in triplicate), including the murine 5T33MM and the human RPMI8226, and ARH77 cell lines (15,000 cells per well). Cells were incubated in IncuCyte™ Live-Cell Analysis System for 72 hours (images were taken every 4 hours). To define dose-dependent effect of CDDO-2P-IM, cells were exposed to concentrations ranging from 50 nM to 150 nM. To examine potential synergy of CDDO-2P-IM with IXZ, MM cells were exposed to IXZ (7 nM-10 nM) either alone or in combination with CDDO-2P-IM.

ARH77 cells = test: as above; format: cell-based, human; conditions: 72 hours
Method: as §1, §2, §3

RPMI8226 cells = test: as above; format: cell-based, human; conditions: 72 hours
Method: as §1, §2, §3

LN227 = test: GBM cell growth (confluence), IncuCyte; format: cell-based, human; conditions: nanomolar concentrations
Method: (§4) FIG. 8 is a set of line graphs. CDDO-2P-Im suppresses growth of TMZ-resistant human GBM cells in vitro. […] Reduction in confluence is accompanied by the detachment and death of GBM cells. The data reveal that the relatively TMZ-resistant U-87MG is equivalent to LN227 in its sensitivity to CDDO-2P-Im.
(§5) To define the capacity of CDDO-2P-IM to suppress the growth and viability of GBM, several well-characterized human GBM cell lines (U251, U-87MG, LN227, Gli36Δ5), primary cultures of patient-derived GBM cells (UVM04, D028), and normal human astrocytes (provided by Dr. Arti Gaur, Dartmouth College) were utilized.
(§6) The activity of CDDO-2P-IM in cultures of human GBM was assessed and similar nanomolar (nM) potency was observed. […] These changes in confluence observed by Incucyte® corresponded with a reduction in cell viability. Doses of CDDO-2P-IM that result in complete cell death of the LN227, U251 and U-87MG cell lines had no effect on the viability of primary human astrocytes in vitro (not shown).

U-87MG = test: GBM cell growth (confluence), IncuCyte; format: cell-based, human
Method: as §4, §5, §6

U251 = test: GBM cell growth (confluence), IncuCyte; format: cell-based, human; conditions: not shown
Method: as §5, §6

primary human astrocytes = test: Viability of primary human astrocytes; format: cell-based; conditions: doses that result in complete cell death of LN227, U251 and U-87MG; not shown
Method: as §5, §6

brain tumor cell lines = test: Radiation response of brain tumor cell lines in vitro; format: cell-based
LONP1 = LONP1 (Homo sapiens, UniProt P36776); test: Binding to LONP1
[3] = Drug levels in brain after systemic dosing, HPLC/Mass Spec; format: in vivo, Mice
Method: Mice (3 per group) were treated with single intraperitoneal (i.p.) doses of either 1 micromole (low dose) or 2 micromoles (high dose) of CDDO-2P-Im in DMSO. Brains were analyzed either 3 or 6 hours after dosing. Brains were homogenized in saline, then extracted with acetonitrile, and the extracts subjected to HPLC/Mass Spec analysis, using appropriate standard curves from spiked homogenates. Values obtained (in nanomoles/kg of brain) were: 270+/−80 (low dose, 3 hours); 300+/−90 (low dose, 6 hours); 2,600+/−2,200 (high dose, 3 hours); and 540+/−260 (high dose, 6 hours).
A second experiment with oral or i.p. dosing of 1 micromole of CDDO-2P-Im, and analysis at 6 hours, confirmed the above results, with drug levels in brain ranging from 140 to 900 nanomoles/kg of brain in 10 different samples from cerebral cortex.

LONP1, sequence (P36776 68-959, species assumed): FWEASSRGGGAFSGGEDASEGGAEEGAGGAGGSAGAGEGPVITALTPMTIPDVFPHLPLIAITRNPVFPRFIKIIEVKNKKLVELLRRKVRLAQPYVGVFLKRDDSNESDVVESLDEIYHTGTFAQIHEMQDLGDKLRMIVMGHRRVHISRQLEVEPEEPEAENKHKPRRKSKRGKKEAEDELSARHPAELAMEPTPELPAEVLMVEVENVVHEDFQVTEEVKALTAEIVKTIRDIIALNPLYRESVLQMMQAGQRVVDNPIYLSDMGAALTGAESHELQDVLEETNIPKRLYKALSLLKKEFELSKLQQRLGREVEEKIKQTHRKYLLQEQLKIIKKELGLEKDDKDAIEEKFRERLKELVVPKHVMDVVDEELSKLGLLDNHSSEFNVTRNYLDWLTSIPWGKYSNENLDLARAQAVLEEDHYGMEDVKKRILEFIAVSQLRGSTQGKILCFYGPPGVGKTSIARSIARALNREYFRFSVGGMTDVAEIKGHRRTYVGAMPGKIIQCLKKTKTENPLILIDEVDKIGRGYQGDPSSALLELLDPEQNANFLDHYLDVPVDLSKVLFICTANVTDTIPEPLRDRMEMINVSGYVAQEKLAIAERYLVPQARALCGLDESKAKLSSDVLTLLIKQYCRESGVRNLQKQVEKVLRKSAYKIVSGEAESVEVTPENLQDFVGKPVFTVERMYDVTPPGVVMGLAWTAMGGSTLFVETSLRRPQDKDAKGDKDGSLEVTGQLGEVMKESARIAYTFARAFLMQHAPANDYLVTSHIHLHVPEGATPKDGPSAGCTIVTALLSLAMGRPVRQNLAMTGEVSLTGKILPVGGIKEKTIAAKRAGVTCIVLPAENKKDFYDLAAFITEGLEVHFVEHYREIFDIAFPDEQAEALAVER

CC1(C)CC[C@]2(C(=O)n3cnc(-c4ccccn4)c3)CC[C@]3(C)[C@H](C(=O)C=C4[C@@]5(C)C=C(C#N)C(=O)C(C)(C)[C@@H]5CC[C@]43C)[C@@H]2C1 [CDDO-2P-Im, 1-[2-Cyano-3,12-dioxooleana-1,9(11)-dien-28-oyl]-4(-pyridin-2-yl)-1H-imidazole]
anti-MM activity (survival) as a single agent (5T33MM cells [1]; daily oral gavage 5 days/week from 3 weeks after 5T33MM-luc inoculation, compared to IXZ 6 mg/kg per week po): comparable to or better than IXZ
tolerability (5T33MM cells [1]; daily oral regimen): well tolerated
proliferation (confluence), combination with IXZ (5T33MM cells [2]; 50 nM TTX01/7.5 nM IXZ): act synergistically
proliferation (confluence), agent added alone (5T33MM cells [2]; 50 nM TTX01 or 7.5 nM IXZ alone): only partially effective
proliferation (confluence) (5T33MM cells [2]; 50 nM-150 nM): significant dose-dependent suppressive effects
proliferation (confluence) (ARH77 cells; 50 nM-150 nM): significant dose-dependent suppressive effects
proliferation (confluence), combination with IXZ (ARH77 cells; 150 nM TTX01/10 nM IXZ): act synergistically
proliferation (confluence), agent added alone (ARH77 cells; 150 nM TTX01 or 10 nM IXZ alone): only partially effective
proliferation (confluence) (RPMI8226 cells; 50 nM-150 nM): significant dose-dependent suppressive effects
proliferation (confluence), combination with IXZ (RPMI8226 cells; 100 nM TTX01/7.5 nM IXZ): act synergistically
proliferation (confluence), agent added alone (RPMI8226 cells; 100 nM TTX01 or 7.5 nM IXZ alone): only partially effective
confluence (growth) (LN227): dose-dependent reduction
confluence (growth) (U-87MG; nanomolar concentrations): dose-dependent reduction
GBM cell kill, combination with TMZ (U-87MG; suboptimal dose of CDDO-2P-Im combined with TMZ, significance at 0.005 or greater): significant gain
confluence (growth) (U251): dose-dependent reduction
viability (primary human astrocytes): no effect
radiation response (brain tumor cell lines): enhances radiation response
binding to LONP1 (LONP1): shown to bind LONP1
level in brain ([3]; single i.p. 1 micromole (low dose) in DMSO, 3 hours): 270+/−80 nanomoles/kg of brain
level in brain ([3]; single i.p. 1 micromole (low dose) in DMSO, 6 hours): 300+/−90 nanomoles/kg of brain
level in brain ([3]; single i.p. 2 micromoles (high dose) in DMSO, 3 hours): 2,600+/−2,200 nanomoles/kg of brain
level in brain ([3]; single i.p. 2 micromoles (high dose) in DMSO, 6 hours): 540+/−260 nanomoles/kg of brain
